Experimental data: patent US20240373849A1, “INSECT NEUROPEPTIDE ANALOGUES” (THE UNIVERSITY COURT OF THE UNIVERSITY OF GLASGOW, priority 2020, published 2024)
Several values for one entry are separate records, joined by “and”; a condition that tells them apart may be missing. Identical values can stand only once.

Legend:
CapaR = target: T1, CapaR (Drosophila melanogaster, UniProt Q8ITC7); test: Measurement of intracellular Ca2+ in S2 cells transfected with CapaR (agonist response); format: cell-based; conditions: 10^−7 M; activity normalised to that of native Capa2 (designated 100%)
T1 construct: transiently transfected with the apoaequorin ORF; expressed in transfected cells; host or cells: Drosophila melanogaster S2 cells, transient transfection, expression induced with CuSO4
T1 sequence (Q8ITC7 1-477): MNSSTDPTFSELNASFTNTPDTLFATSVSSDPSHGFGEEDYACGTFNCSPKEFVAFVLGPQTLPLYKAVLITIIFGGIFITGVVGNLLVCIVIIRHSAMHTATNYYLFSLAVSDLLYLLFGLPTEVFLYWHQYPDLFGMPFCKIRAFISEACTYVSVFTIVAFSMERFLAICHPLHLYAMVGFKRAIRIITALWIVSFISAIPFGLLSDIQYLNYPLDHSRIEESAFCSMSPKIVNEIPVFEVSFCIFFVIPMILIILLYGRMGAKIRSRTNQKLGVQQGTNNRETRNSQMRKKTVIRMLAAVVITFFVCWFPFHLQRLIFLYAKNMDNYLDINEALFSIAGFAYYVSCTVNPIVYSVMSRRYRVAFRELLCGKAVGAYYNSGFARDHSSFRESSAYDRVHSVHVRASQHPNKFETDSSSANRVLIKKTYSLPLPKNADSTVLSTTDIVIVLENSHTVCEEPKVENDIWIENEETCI
Protocol: Drosophila melanogaster S2 cells, cultured under standard conditions (1) were transiently transfected with the apoaequorin ORF (Radford J C, Davies S A, Dow J A. Systematic G-protein-coupled receptor analysis in Drosophila melanogaster identifies a leucokinin receptor with novel roles. J Biol Chem. 2002; 277:38810-38817) and a receptor ORF construct, and expression induced using CuSO4. Transfected S2 cells were harvested and incubated with 2.5 μM coelenterazine in the dark at RT for 1-2 h as described (ibid). 25,000 cells were then placed in 135 μl Schneider's medium supplemented with 10% FCS in a well of a white polystyrene 96-well plate (Berthold Technologies). Bioluminescence recordings were carried out using a Mithras LB940 automated 96-well plate reader (Berthold Technologies) and MikroWin software. 15 μl of each of different peptides were applied to final concentrations as required.
Peptides were tested at 10^−7M.
At the end of each recording samples were disrupted by the addition of 100 μl lysis solution, and the [Ca^2+] concentrations calculated as previously described (Rosay P, Davies S A, Yu Y, Sozen A, Kaiser K, et al. Cell-type specific calcium signalling in a Drosophila epithelium. J Cell Sci. 1997; 110:1683-1692).
For the Capa1 and Capa2 peptides, the relevant native control peptide (D. melanogaster Capa1 or Capa2 respectively) was used as a control. Control agonist activity was normalised to 100% and activity of neuropeptide analogues is expressed relative to that.

[1] = system: aminopeptidase, endopeptidase, carboxypeptidase; format: in vitro ADME
Protocol: (§1) Enzyme digests were performed using aminopeptidase, endopeptidase, carboxypeptidase, or Drosophila melanogaster Malpighian tubule tissue extract. Peptide digests were performed in triplicate alongside ‘mock’ digests, where protease was substituted with water to determine peptide stability in aqueous media at 37° C. Several peptides were tested, including 1st generation AH56 and 3rs generation AH259. These are biostable in the presence of purified proteases for >24 hours; and for >3 hours to insect tissue extracts which are enriched for proteases.

[2] = format: in vitro ADME, Drosophila melanogaster
Protocol: as §1

[3] = system: bumblebees (Bombus terrestris); test: Bumblebee acute oral toxicity test; format: in vivo; conditions: for lethal effect on bumblebees: 1×10^−5 M in 50% sucrose, 0.1% ATPlus, oral; for safety towards B. terrestris in the bumblebee oral toxicity assay: in vivo
[4] = system: Drosophila suzukii larvae; test: Drosophila suzukii larval feeding (Example 8; peptide screening); format: in vivo
Protocol: (§2) First to Fourth generations of peptides were produced with varying structures and tested for CAPA receptor agonist activity, and screened for lethality in vivo against D. suzukii and M. persicae as per methods in example 2 and example 8. The top performing peptides were selected and gave rise to the list of CAPA1 and CAPA2 peptides provided above in Table 1 which were then further tested in the following applied examples.
Peptides were tested at concentrations ranging from [10^−4 M] to [10^−7 M] in a final volume of 200 μl of 0.8% agarose containing 0.09% m-Cresol purple pH marker dye (Sigma) and 5% sucrose (Sigma).
Agarose was melted in dH2O, before addition of sucrose and dye. The agarose/dye solution was then allowed to cool to 60° C. 96 well plates (flat-bottomed 3596 TC-plates; Corning) containing 20 μl volumes of neuropeptide per well were prepared, and 180 μl agarose/dye solution dispensed into each well via a Distriman repetitive micro-pipettor (Gilson). Controls contained 20 μl dH2O as a ‘sham’ treatment with 180 μl of the 0.8% agarose/dye solution. Plates were agitated at 800 rpm, to ensure mixing, at 60° C. (Eppendorf Thermomixer C). Plates were then allowed to cool, and agarose/dye solution solidify, prior to use.
Each peptide was assayed with a minimum of 7 to maximum 9 late L2/early L3 Spotted wing Drosophila, Drosophila suzukii, (feeding) larvae per well, minimum n=8 wells per peptide concentration and a minimum n=12 control wells per plate. The selected larvae were first washed 2× in ice cold Drosophila Schneider's liquid medium (ThermoFisher) before insertion into wells to remove extraneous food. After complete insertion of all larvae the plates were covered with breathable sealing membrane for multi-well plates (Sigma).
Larvae were assayed for lethality after 48 hr exposure at 21° C. and findings recorded. During examination the assay plate was kept on ice, to reduce larval locomotor activity (wandering), and larvae in each well were examined using a binocular stereomicroscope (Zeiss).
The water control group was used to determine baseline lethality. Results for neuropeptide analogues were calculated as % lethality in the remaining population after adjustment for the baseline. Results are shown in Tables 7 and 8 below, and in FIG. 1.

M. persicae [5] = test: Feeding of aphids with peptides in artificial diet (Example 1); format: in vivo, Myzus persicae; conditions: 10^−5 M
Protocol: A standard artificial diet for M. persicae was produced as described in Van Emden (2009) and provided the basal diet to which peptides were added for screening purposes. Peptides were diluted individually in the artificial diet to a pre-determined concentration.
Feeding apparatus were constructed using a set-up developed by Sadeghi et al (2009). For this, a piece of Parafilm was stretched over a Plexiglas ring (h=4 cm, Ø=3 cm) and 100 μl of the artificial diet containing the desired neuropeptide analogue was pipette onto the Parafilm membrane. A second piece of Parafilm, stretched to 4 times the original thickness, was stretched over the original layer, sandwiching the artificial diet between two layers of Parafilm. A strip of Parafilm was wrapped around the circumference of the Plexiglas ring, sealing in the diet. A plastic ring (h=1.2 cm, Ø=3.4 cm) was subsequently placed over the Parafilm layer, creating a walled chamber in which to house test aphids in contact with the Parafilm layer containing the artificial diet. Finally, a small Petri dish (h=1 cm, Ø=3.6 cm), modified for ventilation with net cloth, was placed on top of each feeding apparatus to prevent aphid escape.
To obtain aphids for use in experiments, reproducing anholocyclic adults were placed on individual excised leaves of Chinese cabbage at densities of 5 adults per leaf and allowed to reproduce for 24 h. The stem of each excised leaf was held within a 0.5 mL Eppendorf tube containing water via a punctured hole in the Eppendorf lid, and placed individually within a microcage (L=4 cm, Ø=9.5 cm). Following 24h, adults were removed and resultant first instar nymphs (<1 day old and synchronised in age to within 24h) retained. Nymphs were allowed to develop on the Chinese cabbage for 5 days. On day 5, (3rd instar) nymphs were transferred onto the artificial diet containing a neuropeptide analogue at densities of 1 per feeding chamber and monitored daily until death. Aphids were transferred to fresh artificial diet (containing neuropeptide analogue or water control) every 5 days.
The water control group was used to determine baseline lethality. Results for neuropeptide analogues were calculated as % lethality in the remaining population after adjustment for the baseline.

M. persicae [6] = test: Feeding of aphids with peptides in artificial diet (Example 2; peptide screening, honeydew); format: in vivo, Myzus persicae; conditions: Peptide screening, Table 5
Text: as §2
The aphid feeding protocol was devised according to Sadeghi et al (2009) as explained in example 1. Feeding discs were designed and manufactured as above. A standard sucrose-based artificial diet for M. persicae (30 aphids per chamber, 3 chambers per experiment unless otherwise stated) was produced as described in example 1 (Sadeghi et al, J. Insect Science, 2009) and provided the basal diet to which peptides were added for screening purposes. Peptides were diluted individually in the artificial diet to 10^−5 M. Lethality was scored after up to 120 hours (IRAC guidelines for aphid testing).
Membrane discs were also included to collect ‘honeydew’ secreted by feeding aphids and stained with ninhydrin to observe feeding patterns.
Comparison of purple stain in controls to treated aphids, show there is very little colour on many membranes where peptides were added.
Capa peptides cause mortality in M. persicae via feeding: At 120 hours, AH383 and AH387 peptides induce ˜60% mean (and median) lethality. Although mean lethality is lower with AH270/PEGAH270 (40%), 100% lethality is observed in one sample of 30 insects (AH270); and 90% in at least one sample of each of AH383, AH387 and PEGAH270 (FIG. 3). Note that PEGAH270 is a pegylated form of peptide AH270.

Myzus persicae aphids = test: Topical application by spraying, Potter Spray Tower (Example 3); format: in vivo; conditions: 48 hours post spray
Protocol: Aphids were exposed to test peptides in the absence of additional external stress conditions.
Brassica rapa (Chinese cabbage; Wong Bok) were infested with 30 adult Myzus persicae aphids per plant. Aphids were left at least 2 hours to settle and begin feeding from the host plant.
Potter Spray Tower (Burkard Manufacturing) was ‘primed’ by spraying 1000 μl of liquid coating the inside of the tower. Vehicle spray only (Croda ATPlus UEP 100 LQ-(CQ) 0.1% v/v) was used as a control.
Spray volumes for all solutions were 3000 μl. […] After spraying was completed the plant was allowed to rest on the spray platform for 30 seconds to allow settling of the sprayed chemical.
Post peptide application, each condition was placed into its own individual Bugdorm (Watkins and Doncaster, 44545), to prevent repulsed or displaced aphids moving from one condition to another. Numbers of alive and dead aphids on the plant were counted 48 hours post spray, and the presence of any fresh nymphs noted. Plants were watered prior to spraying but not afterwards to eliminate the possibility of drowning any aphids present or washing off the sprayed liquid.
The vehicle control group was used to determine baseline lethality. Results for neuropeptide analogues were calculated as % lethality in the remaining population after adjustment for the baseline.

[7] = Table 12, individual bees, 20% sucrose 0.1% ATPlus AH56
[8] = Table 12, 20% sucrose 0.1% ATPlus AH56

| Molecule | CapaR Ca^2+ Agonist response (CapaR) | biostable in the presence of purified proteases [1] | biostable to insect tissue extracts enriched for proteases [2] | lethal effect on bumblebees [3] | safety towards B. terrestris in the bumblebee oral toxicity assay [3] | Feeding D. suzukii, % lethality in population after adjustment for baseline ([4]; 10^−5 M, 48 hr exposure) | D. suzukii (Mean% Lethality ± SD) ([4]; Peptide screening, Table 5, blank control 20.33) | Feeding Aphid, % lethality in population after adjustment for baseline (M. persicae [5]) | M. persicae (% Lethality) (M. persicae [6]) | Spray Aphid, % lethality in population after adjustment for baseline (Myzus persicae aphids; 10^−4 M) | Spray Aphid, % lethality in population after adjustment for baseline (Myzus persicae aphids; 10^−5 M) | Volume remaining [3, 7] | Volume removed [3, 7] | Volume remaining, group mean [3, 8] | Volume removed, group mean [3, 8] |
| --- | --- | --- | --- | --- | --- | --- | --- | --- | --- | --- | --- | --- | --- | --- | --- |
| CC(C)C[C@H](N=C(N(C)C)N(C)C)C(=O)N(C)[C@H](C(=O)N[C@@H](C)C(=O)N[C@@H](Cc1ccccc1)C(=O)N1CCC[C@H]1C(=O)N[C@@H](CCCNC(=N)N)C(=O)N[C@H](C(N)=O)C(C)C)C(C)C [AH259, Guanidyl-L-(Me)V-AFPRV-NH2] | 12% | > 24 h | > 3 h | No lethal effect | safe | – | – | – | – | – | – | – | – | – | – |
| H-Ahx-LVAFPRV-NH2 [AH56] | – | > 24 h | > 3 h | No lethal effect | safe | 51% | 50.63% | 30% | 30% | 41% | 35% | 211 ul (2×) and 295 ul (2×) and 248 ul (2×) and 216 ul (2×) and 178 ul (2×) | 289 and 205 and 252 and 284 and 322 | 229.6 µL | 270.4 |
